Measurements as given in ChEMBL document CHEMBL5608163, “Structure modification of anoplin for fighting resistant bacteria” (Eur J Med Chem, 2024).
Converted amounts (≈) assume the structure as drawn. Square brackets hold non-standard residues; d marks the D form. Peptide text beside a SMILES is read from it. Cha = N[C@@H](CC1CCCCC1)C(=O)O

How the values were obtained:
[1] = Hemolytic activity against human Red blood cells assessed as cell lysis; type: toxicity, cell-based, Erythrocyte
[2] = tested on: Mycolicibacterium smegmatis; test: Antimycobacterial activity against Mycobacterium smegmatis mc2 155 assessed as reduction in bacterial cell growth incubated for 24 hrs by resazurin dye based broth microdilution method; type: functional
Escherichia coli [3] = test: Antibacterial acitivity against Escherichia coli DH5a assessed as bacterial growth inhibition incubated for 24 hrs by broth micro-dilution method; type: functional
Zymomonas mobilis = test: Antibacterial activity against Zymomonas mobilis ATCC 10988 assessed as reduction in bacterial growth incubated for 24 hrs by broth micro-dilution method; type: functional
Bacillus subtilis [4] = test: Antimicrobial activity against Bacillus subtilis assessed as microbial growth inhibition incubated for 24 hrs by broth micro-dilution method; type: functional
Pseudomonas aeruginosa [5] = test: Antimicrobial activity against Pseudomonas aeruginosa assessed as inhibition of microbial growth incubated for 24 hrs by microdilution method; type: functional
Erythrocyte = test: Hemolytic activity in erythrocytes (unknown origin); type: toxicity, cell-based
Enterococcus faecium [6] = test: Antibacterial activity against Vancomycin resistant Enterococcus faecium ATCC 700221 assessed as inhibition of bacterial growth incubated for 16 to 20 hrs by broth micro-dilution method; type: functional; settings: time 16-20 hrs
Staphylococcus aureus [7] = test: Antibacterial activity against methicillin resistant Staphylococcus aureus ATCC 33591 assessed as inhibition of bacterial growth incubated for 16 to 20 hrs by broth micro-dilution method; type: functional; settings: time 16-20 hrs
Staphylococcus aureus [8] = test: Antibacterial activity against methicillin-resistant Staphylococcus aureus ATCC 33591 assessed as reduction in bacterial growth incubated for 16 to 24 hrs by agar dilution method; type: functional; settings: time 16-24 hrs
[9] = Hemolytic activity in human RBC; type: toxicity, cell-based, Erythrocyte; settings: red blood cells
Escherichia coli [10] = test: Antibacterial activity against Escherichia coli ATCC 25922 assessed as reduction in bacterial growth incubated for 18 to 24 hrs by broth microdilution method; type: functional; settings: time 18-24 hrs
[11] = Hemolytic activity against Red blood cells (unknown origin) incubated for 1 hr by spectrophotometric analysis; type: toxicity, cell-based, Erythrocyte
Enterococcus faecium [12] = test: Antibacterial activity against vancomycin resistant Enterococcus faecium NCTC 12204 assessed as reduction in bacterial growth by microdilution broth method; type: functional
Pseudomonas aeruginosa [13] = test: Antibacterial activity against Pseudomonas aeruginosa ATCC 15442 assessed as reduction in bacterial cell growth incubated for 18 to 24 hrs by two fold serial microdilution method; type: functional; settings: time 18-24 hrs
Bacillus subtilis [14] = test: Antibacterial activity against Bacillus subtilis ATCC 23857 assessed as reduction in bacterial growth measured after 18 to 24 hrs by CLSI protocol-based Mueller-Hinton broth dilution method; type: functional; settings: time 18-24 hrs
Escherichia coli [15] = test: Antibacterial activity against multi-drug resistant Escherichia coli clinical isolate 850 assessed as reduction in bacterial growth measured after 18 to 24 hrs by CLSI protocol-based Mueller-Hinton broth dilution method; type: functional; settings: time 18-24 hrs
Acinetobacter baumannii = test: Antibacterial activity against multi-drug resistant Acinetobacter baumannii clinical isolate 9840 assessed as reduction in bacterial growth measured after 18 to 24 hrs by CLSI protocol-based Mueller-Hinton broth dilution method; type: functional; settings: time 18-24 hrs
Pseudomonas aeruginosa [16] = test: Antibacterial activity against multi-drug resistant Pseudomonas aeruginosa clinical isolate 119 assessed as reduction in bacterial growth measured after 18 to 24 hrs by CLSI protocol-based Mueller-Hinton broth dilution method; type: functional; settings: time 18-24 hrs
Staphylococcus aureus [17] = test: Antibacterial activity against Staphylococcus aureus ATCC 25923 assessed as reduction in bacterial growth measured after 18 to 24 hrs by CLSI protocol-based Mueller-Hinton broth dilution method; type: functional; settings: time 18-24 hrs
Klebsiella pneumoniae = test: Antibacterial activity against Klebsiella pneumoniae ATCC 700603 assessed as reduction in bacterial growth measured after 18 to 24 hrs by CLSI protocol-based Mueller-Hinton broth dilution method; type: functional; settings: time 18-24 hrs

CC[C@H](C)[C@H](NC(=O)[C@H](CCCCN)NC(=O)[C@H](CC(C)C)NC(=O)[C@H](CC(C)C)NC(=O)CN)C(=O)N[C@H](C(=O)N[C@@H](CCCCN)C(=O)N[C@@H](CCCCN)C(=O)N[C@@H](CC(C)C)C(=O)N[C@@H](CC(C)C)C(N)=O)[C@@H](C)CC (H-GLLKIIKKLL-NH2)
HC50 [1]: > 167 µM | MIC [2]: 16.7 µM (≈ 19 µg/mL) | MIC (Escherichia coli [3]): 83.7 µM (≈ 95.2 µg/mL) | MIC (Zymomonas mobilis): 2.5 µM (≈ 2.84 µg/mL) | MIC (Bacillus subtilis [4]): 5.9 µM (≈ 6.71 µg/mL) | MIC (Pseudomonas aeruginosa [5]): 2.5 µM

CC[C@H](C)[C@H](NC(=O)[C@H](CCCCN)NC(=O)[C@H](CCCCN)NC(=O)[C@H](CC(C)C)NC(=O)[C@H](CC(C)C)NC(=O)CN)C(=O)N[C@@H](CCCCN)C(=O)N[C@@H](CCCNC(=N)N)C(=O)N[C@@H](CC(C)C)C(=O)N[C@@H](CC(C)C)C(N)=O (H-GLLKKIKRLL-NH2)
HC50 [1]: > 170 µM | MIC [2]: 0.9 µM (≈ 1.06 µg/mL) | MIC (Escherichia coli [3]): 170 µM (≈ 200 µg/mL) | MIC (Zymomonas mobilis): 4.2 µM (≈ 4.96 µg/mL) | MIC (Bacillus subtilis [4]): 170 µM (≈ 200 µg/mL) | MIC (Pseudomonas aeruginosa [5]): 5.9 µM

CC(C)C[C@H](NC(=O)CN)C(=O)N[C@@H](CC(C)C)C(=O)N[C@@H](CCCCN)C(=O)N[C@@H](CCCNC(=N)N)C(=O)N[C@H](Cc1ccc2ccccc2c1)C(=O)N[C@@H](CCCCN)C(=O)N[C@H](C(=O)N[C@@H](CC(C)C)C(=O)N[C@@H](CC1CCCCC1)C(N)=O)[C@@H](C)O
HC10 (Erythrocyte): 74.3 µM | MIC (Enterococcus faecium [6]): 3.2 µM (≈ 4.09 µg/mL) | MIC (Staphylococcus aureus [7]): 28.4 µM (≈ 36.3 µg/mL)

CC[C@H](C)[C@H](NC(=O)[C@H](CCCNC(=N)N)NC(=O)[C@H](CCCCN)NC(=O)[C@H](CC(C)C)NC(=O)[C@H](CC(C)C)NC(=O)CN)C(=O)N[C@@H](CCCCN)C(=O)N[C@@H](CCCCN)C(=O)N[C@@H](CC(C)C)C(=O)N[C@@H](CC1CCCCC1)C(N)=O (H-GLLKRIKKL[Cha]-NH2)
MIC (Staphylococcus aureus [8]): 9.5 µM (≈ 11.6 µg/mL) | HC50 [9]: 12.4 µM | MIC (Escherichia coli [10]): 9.5 µM (≈ 11.6 µg/mL) | HC50 at 1 h [11]: 12.4 µM | MIC (Enterococcus faecium [12]): 9.5 µM (≈ 11.6 µg/mL) | MIC (Pseudomonas aeruginosa [13]): 4.6 µM (≈ 5.62 µg/mL)

CC[C@H](C)[C@H](NC(=O)[C@H](Cc1ccccc1)NC(=O)[C@H](CCCCN)NC(=O)[C@H](CC(C)C)NC(=O)[C@H](CC(C)C)NC(=O)CN)C(=O)N[C@@H](CCCCN)C(=O)N[C@@H](CCCNC(=N)N)C(=O)N[C@@H](CC(C)C)C(=O)N[C@@H](CC(C)C)C(N)=O (H-GLLKFIKRLL-NH2)
HC50 [1]: > 167 µM | MIC [2]: 4.2 µM (≈ 5.04 µg/mL) | MIC (Escherichia coli [3]): 167 µM (≈ 200 µg/mL) | MIC (Zymomonas mobilis): 17.4 µM (≈ 20.9 µg/mL) | MIC (Bacillus subtilis [4]): 167 µM (≈ 200 µg/mL) | MIC (Pseudomonas aeruginosa [5]): 2.5 µM

CC[C@H](C)[C@H](NC(=O)[C@H](CCCCN)NC(=O)[C@H](CC(C)C)NC(=O)[C@H](CC(C)C)NC(=O)CN)C(=O)N[C@H](C(=O)N[C@@H](CCCCN)C(=O)N[C@@H](CCCNC(=N)N)C(=O)N[C@@H](CC(C)C)C(=O)N[C@@H](CC(C)C)C(N)=O)[C@@H](C)CC (H-GLLKIIKRLL-NH2)
HC50 [1]: > 172 µM | MIC [2]: 4.3 µM (≈ 5.01 µg/mL) | MIC (Escherichia coli [3]): 172 µM (≈ 200 µg/mL) | MIC (Zymomonas mobilis): 33.9 µM (≈ 39.5 µg/mL) | MIC (Bacillus subtilis [4]): 8.6 µM (≈ 10 µg/mL) | MIC (Pseudomonas aeruginosa [5]): 2.6 µM

CC[C@H](C)[C@H](NC(=O)[C@H](CCCCN)NC(=O)[C@H](CCCCN)NC(=O)[C@H](CC(C)C)NC(=O)[C@H](CC1CCCCC1)NC(=O)CN)C(=O)N[C@@H](CCCCN)C(=O)N[C@@H](CCCCN)C(=O)N[C@@H](CC(C)C)C(=O)N[C@@H](CC1CCCCC1)C(N)=O (H-G[Cha]LKKIKKL[Cha]-NH2)
MIC (Staphylococcus aureus [8]): 3.2 µM (≈ 3.94 µg/mL) | HC50 [9]: 0.5 µM | MIC (Escherichia coli [10]): 4.6 µM (≈ 5.67 µg/mL) | HC50 at 1 h [11]: 0.5 µM | MIC (Enterococcus faecium [12]): 3.2 µM (≈ 3.94 µg/mL) | MIC (Pseudomonas aeruginosa [13]): 3.2 µM (≈ 3.94 µg/mL)

CC[C@H](C)[C@H](NC(=O)[C@H](CCCNC(=N)N)NC(=O)[C@@H](CCCCN)NC(=O)[C@H](CC(C)C)NC(=O)[C@H](CC(C)C)NC(=O)CNC(C)=O)C(=O)N[C@H](CCCCN)C(=O)N[C@H](C(=O)N[C@@H](CC(C)C)C(=O)N[C@@H](CC(C)C)C(=O)NC(Cc1cn(CCCC[C@H](NC(=O)[C@H](CC(C)C)NC(=O)[C@H](CC(C)C)NC(=O)[C@@H](NC(=O)[C@@H](CCCCN)NC(=O)[C@@H](NC(=O)[C@@H](CCCNC(=N)N)NC(=O)[C@H](CCCCN)NC(=O)[C@H](CC(C)C)NC(=O)[C@H](CC(C)C)NC(=O)CNC(C)=O)[C@@H](C)CC)[C@@H](C)O)C(N)=O)nn1)C(N)=O)[C@@H](C)O (stereo partly drawn)
MIC (Bacillus subtilis [14]): 64 µM (≈ 169 µg/mL) | MIC (Escherichia coli [15]): 16 µM (≈ 42.2 µg/mL) | MIC (Acinetobacter baumannii): 4 µM (≈ 10.6 µg/mL) | MIC (Pseudomonas aeruginosa [16]): 32 µM (≈ 84.5 µg/mL) | MIC (Staphylococcus aureus [17]): 64 µM (≈ 169 µg/mL) | MIC (Klebsiella pneumoniae): 64 µM (≈ 169 µg/mL)

CC[C@@H](C)[C@@H](NC(=O)[C@H](CCCCN)NC(=O)[C@H](CCCCN)NC(=O)[C@H](CC(C)C)NC(=O)[C@H](CC(C)C)NC(=O)CN)C(=O)N[C@@H](CCCCN)C(=O)N[C@@H](CCCCN)C(=O)N[C@@H](CC(C)C)C(=O)N[C@@H](CC(C)C)C(N)=O
HC10 (Erythrocyte): 1962.4 µM | MIC (Enterococcus faecium [6]): 341 µM (≈ 393 µg/mL) | MIC (Staphylococcus aureus [7]): 1020 µM (≈ 1180 µg/mL)
